Experimental data from the kinase profiling compilation of Christmann-Franck et al. (2016).

How the values were obtained:
Assay in all cases: radiometric filter-binding kinase assay
[1] = biological target: EPHA4 (human) (UniProt P54764); settings: compound 100.0 µM
[2] = biological target: NEK2 (human) (UniProt P51955); settings: compound 100.0 µM
[3] = biological target: MAPK3 (human) (UniProt P27361); settings: compound 100.0 µM
[4] = biological target: PLK1 (human) (UniProt P53350); settings: compound 100.0 µM
[5] = biological target: SRC (human) (UniProt P12931); settings: compound 100.0 µM
[6] = biological target: SYK (human) (UniProt P43405); settings: compound 100.0 µM
[7] = biological target: MAPKAPK3 (human) (UniProt Q16644); settings: compound 100.0 µM
[8] = biological target: IKBKB (human) (UniProt O14920); settings: compound 100.0 µM
[9] = test system: AKT2 (human), P31751 [S474D]; settings: compound 100.0 µM
[10] = biological target: BTK (human) (UniProt Q06187); settings: compound 100.0 µM
[11] = biological target: RPS6KA5 KD1 KD2 (human) (UniProt O75582); settings: compound 100.0 µM
[12] = biological target: MKNK2 (human) (UniProt Q9HBH9); settings: compound 100.0 µM
[13] = biological target: INSRR (human) (UniProt P14616); settings: compound 100.0 µM
[14] = biological target: PRKACA (human) (UniProt P17612); settings: compound 100.0 µM
[15] = biological target: MAPK15 (human) (UniProt Q8TD08); settings: compound 100.0 µM
[16] = biological target: MAP2K1 (human) (UniProt Q02750); settings: compound 100.0 µM
[17] = test system: RPS6KB1 (human), P23443 [T412E]; settings: compound 100.0 µM
[18] = biological target: EPHB1 (human) (UniProt P54762); settings: compound 100.0 µM
[19] = test system: PRKAA1 or PRKAA2 (rat); settings: compound 100.0 µM; accession and sequence are those of the human protein
[20] = biological target: MAPK1 (human) (UniProt P28482); settings: compound 100.0 µM
[21] = biological target: EPHB4 (human) (UniProt P54760); settings: compound 100.0 µM
[22] = biological target: PAK7 (human) (UniProt Q9P286); settings: compound 100.0 µM
[23] = biological target: IKBKE (human) (UniProt Q14164); settings: compound 100.0 µM
[24] = biological target: RIPK2 (human) (UniProt O43353); settings: compound 100.0 µM
[25] = biological target: CSK (human) (UniProt P41240); settings: compound 100.0 µM
[26] = biological target: PIM2 (human) (UniProt Q9P1W9); settings: compound 100.0 µM
[27] = biological target: RPS6KA3 KD1 KD2 (human) (UniProt P51812); settings: compound 100.0 µM
[28] = biological target: CDK2 CCNA2 (human) (UniProt P20248+P24941); settings: compound 100.0 µM
[29] = biological target: CHEK2 (human) (UniProt O96017); settings: compound 100.0 µM
[30] = biological target: RPS6KA1 KD1 KD2 (human) (UniProt Q15418); settings: compound 100.0 µM
[31] = biological target: TTK (human) (UniProt P33981); settings: compound 100.0 µM
[32] = biological target: FLT1 (human) (UniProt P17948); settings: compound 100.0 µM
[33] = biological target: MAPK14 (human) (UniProt Q16539); settings: compound 100.0 µM

Sequence of CSK (human) (P41240 whole entry, looked up): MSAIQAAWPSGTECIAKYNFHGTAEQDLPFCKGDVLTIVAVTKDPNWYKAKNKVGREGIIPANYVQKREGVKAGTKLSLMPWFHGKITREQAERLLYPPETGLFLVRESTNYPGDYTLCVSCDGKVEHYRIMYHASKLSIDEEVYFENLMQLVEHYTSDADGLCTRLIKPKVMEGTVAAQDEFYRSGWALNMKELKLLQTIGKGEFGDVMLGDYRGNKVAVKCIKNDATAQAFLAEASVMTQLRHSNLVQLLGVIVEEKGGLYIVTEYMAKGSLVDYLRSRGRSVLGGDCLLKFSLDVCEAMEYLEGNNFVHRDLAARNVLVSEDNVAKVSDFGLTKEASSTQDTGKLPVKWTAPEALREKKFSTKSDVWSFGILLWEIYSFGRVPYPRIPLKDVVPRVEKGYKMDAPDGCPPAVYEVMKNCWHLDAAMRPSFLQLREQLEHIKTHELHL
Sequence of EPHB1 (human) (P54762 whole entry, looked up): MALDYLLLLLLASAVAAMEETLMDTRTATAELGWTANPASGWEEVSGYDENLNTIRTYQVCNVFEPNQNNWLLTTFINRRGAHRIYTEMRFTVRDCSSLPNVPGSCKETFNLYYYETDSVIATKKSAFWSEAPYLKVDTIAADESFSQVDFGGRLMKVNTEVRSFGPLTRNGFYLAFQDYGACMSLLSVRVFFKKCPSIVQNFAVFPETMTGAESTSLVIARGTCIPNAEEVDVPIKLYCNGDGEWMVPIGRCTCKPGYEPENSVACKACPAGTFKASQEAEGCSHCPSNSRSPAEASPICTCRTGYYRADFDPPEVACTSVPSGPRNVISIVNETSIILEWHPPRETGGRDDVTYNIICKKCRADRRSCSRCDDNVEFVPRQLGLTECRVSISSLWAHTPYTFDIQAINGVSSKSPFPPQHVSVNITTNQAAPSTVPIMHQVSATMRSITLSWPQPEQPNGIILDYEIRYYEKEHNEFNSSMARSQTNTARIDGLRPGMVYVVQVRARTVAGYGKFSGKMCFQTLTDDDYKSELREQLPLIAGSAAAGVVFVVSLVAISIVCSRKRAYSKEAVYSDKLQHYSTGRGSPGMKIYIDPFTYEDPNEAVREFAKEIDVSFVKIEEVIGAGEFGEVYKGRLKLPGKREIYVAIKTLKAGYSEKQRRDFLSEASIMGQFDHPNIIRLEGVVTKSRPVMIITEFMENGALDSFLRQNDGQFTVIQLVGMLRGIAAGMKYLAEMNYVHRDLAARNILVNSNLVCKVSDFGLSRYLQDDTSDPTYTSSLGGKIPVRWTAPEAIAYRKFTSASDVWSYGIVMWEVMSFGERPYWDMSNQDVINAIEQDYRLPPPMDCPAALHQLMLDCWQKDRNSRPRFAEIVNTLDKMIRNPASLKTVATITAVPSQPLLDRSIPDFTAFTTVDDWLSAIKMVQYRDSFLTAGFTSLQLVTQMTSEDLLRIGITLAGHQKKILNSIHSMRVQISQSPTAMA
Sequence of MAPK3 (human) (P27361 whole entry, looked up): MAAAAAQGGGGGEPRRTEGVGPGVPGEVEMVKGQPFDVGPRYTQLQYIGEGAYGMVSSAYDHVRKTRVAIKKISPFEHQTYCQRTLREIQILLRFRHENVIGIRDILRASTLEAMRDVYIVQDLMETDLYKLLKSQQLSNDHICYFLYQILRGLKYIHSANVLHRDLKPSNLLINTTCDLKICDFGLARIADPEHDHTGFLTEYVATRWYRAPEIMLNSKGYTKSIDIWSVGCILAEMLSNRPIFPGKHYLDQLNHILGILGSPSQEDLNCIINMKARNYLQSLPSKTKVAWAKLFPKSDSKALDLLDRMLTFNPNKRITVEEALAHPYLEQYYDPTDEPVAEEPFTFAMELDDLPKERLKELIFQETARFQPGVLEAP
Sequence of EPHA4 (human) (P54764 whole entry, looked up): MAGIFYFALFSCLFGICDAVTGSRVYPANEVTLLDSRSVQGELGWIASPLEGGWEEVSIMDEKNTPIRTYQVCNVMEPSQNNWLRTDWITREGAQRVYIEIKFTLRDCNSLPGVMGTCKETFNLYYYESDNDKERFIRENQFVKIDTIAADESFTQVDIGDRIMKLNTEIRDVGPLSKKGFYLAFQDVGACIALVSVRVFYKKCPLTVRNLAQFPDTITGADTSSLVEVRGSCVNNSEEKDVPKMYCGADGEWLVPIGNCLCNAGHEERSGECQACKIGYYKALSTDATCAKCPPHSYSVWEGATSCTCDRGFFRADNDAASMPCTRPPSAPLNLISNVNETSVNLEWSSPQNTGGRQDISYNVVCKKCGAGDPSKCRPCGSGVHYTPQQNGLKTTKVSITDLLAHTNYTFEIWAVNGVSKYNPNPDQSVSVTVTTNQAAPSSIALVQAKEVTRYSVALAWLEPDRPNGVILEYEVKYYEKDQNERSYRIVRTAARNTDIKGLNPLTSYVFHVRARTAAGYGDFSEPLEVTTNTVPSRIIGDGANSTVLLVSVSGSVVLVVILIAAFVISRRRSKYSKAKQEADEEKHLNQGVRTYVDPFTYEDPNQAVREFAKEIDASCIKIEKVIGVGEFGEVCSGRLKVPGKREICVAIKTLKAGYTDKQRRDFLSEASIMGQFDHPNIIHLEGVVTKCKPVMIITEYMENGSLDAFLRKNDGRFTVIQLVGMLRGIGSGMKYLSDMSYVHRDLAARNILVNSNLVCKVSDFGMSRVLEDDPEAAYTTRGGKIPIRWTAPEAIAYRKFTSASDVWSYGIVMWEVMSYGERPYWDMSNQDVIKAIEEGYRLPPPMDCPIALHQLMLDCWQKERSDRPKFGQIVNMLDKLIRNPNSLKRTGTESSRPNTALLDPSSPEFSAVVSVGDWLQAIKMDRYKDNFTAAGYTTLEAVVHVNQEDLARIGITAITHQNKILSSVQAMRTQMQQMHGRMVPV
Sequence of EPHB4 (human) (P54760 whole entry, looked up): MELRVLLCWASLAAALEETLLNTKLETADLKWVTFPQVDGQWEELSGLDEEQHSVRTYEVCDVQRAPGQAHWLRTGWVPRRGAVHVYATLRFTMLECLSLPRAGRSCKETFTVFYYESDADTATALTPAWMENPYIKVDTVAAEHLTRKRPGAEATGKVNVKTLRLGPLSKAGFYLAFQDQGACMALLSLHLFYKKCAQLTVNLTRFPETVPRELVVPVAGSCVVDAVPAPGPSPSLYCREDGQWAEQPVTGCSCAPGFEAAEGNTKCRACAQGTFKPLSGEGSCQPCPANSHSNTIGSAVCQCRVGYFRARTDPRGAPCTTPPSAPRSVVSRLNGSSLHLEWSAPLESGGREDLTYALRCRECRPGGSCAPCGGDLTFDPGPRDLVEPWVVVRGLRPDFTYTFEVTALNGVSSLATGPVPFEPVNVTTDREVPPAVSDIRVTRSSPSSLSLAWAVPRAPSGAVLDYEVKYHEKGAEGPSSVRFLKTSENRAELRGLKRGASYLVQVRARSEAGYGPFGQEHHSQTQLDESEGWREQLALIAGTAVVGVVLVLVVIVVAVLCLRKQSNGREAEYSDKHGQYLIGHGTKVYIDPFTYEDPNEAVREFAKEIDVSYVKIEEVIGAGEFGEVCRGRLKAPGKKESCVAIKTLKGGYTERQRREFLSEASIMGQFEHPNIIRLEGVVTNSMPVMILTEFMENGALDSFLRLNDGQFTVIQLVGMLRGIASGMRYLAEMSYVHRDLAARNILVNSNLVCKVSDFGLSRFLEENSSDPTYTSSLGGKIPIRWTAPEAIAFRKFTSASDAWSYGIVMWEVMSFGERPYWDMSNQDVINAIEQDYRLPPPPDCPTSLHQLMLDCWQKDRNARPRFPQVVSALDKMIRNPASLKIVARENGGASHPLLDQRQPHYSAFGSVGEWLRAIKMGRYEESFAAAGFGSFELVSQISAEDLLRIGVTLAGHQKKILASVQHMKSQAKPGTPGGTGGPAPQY
Sequence of INSRR (human) (P14616 whole entry, looked up): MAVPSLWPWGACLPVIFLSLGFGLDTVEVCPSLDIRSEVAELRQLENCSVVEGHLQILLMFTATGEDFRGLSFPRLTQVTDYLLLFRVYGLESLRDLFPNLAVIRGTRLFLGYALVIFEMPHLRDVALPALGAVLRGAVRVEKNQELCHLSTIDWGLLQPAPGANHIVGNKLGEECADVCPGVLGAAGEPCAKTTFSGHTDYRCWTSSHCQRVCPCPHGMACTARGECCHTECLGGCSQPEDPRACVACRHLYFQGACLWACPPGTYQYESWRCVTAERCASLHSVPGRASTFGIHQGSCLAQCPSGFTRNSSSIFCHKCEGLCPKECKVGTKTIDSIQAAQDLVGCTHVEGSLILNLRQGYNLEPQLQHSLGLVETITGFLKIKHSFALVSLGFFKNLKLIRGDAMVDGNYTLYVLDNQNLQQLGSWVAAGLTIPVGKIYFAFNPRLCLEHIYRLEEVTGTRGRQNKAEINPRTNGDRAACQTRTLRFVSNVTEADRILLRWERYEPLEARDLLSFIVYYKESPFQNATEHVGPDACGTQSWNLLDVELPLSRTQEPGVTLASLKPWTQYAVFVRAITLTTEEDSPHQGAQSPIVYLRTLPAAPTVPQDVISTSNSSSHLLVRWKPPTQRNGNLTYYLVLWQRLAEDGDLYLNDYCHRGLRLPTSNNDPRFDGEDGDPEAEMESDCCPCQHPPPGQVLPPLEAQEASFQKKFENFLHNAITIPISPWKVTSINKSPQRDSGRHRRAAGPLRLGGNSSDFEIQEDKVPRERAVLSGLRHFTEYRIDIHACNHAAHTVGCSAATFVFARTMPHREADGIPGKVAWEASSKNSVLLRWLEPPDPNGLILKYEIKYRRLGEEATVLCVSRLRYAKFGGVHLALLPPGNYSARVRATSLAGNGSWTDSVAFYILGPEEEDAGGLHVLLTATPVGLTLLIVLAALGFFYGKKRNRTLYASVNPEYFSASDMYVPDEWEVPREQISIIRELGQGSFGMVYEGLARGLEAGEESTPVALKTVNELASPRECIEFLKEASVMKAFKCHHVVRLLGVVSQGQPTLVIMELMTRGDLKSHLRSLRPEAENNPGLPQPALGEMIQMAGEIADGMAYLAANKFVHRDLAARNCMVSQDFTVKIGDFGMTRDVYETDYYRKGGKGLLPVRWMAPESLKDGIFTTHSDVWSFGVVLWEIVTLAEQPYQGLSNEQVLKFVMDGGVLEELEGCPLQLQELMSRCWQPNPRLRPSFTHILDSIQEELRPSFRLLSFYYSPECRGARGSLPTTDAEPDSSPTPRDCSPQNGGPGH

Cc1cc(N=Nc2cc(S(=O)(=O)O)c(C)cc2C)c(N)cc1O
residual activity [1]: 92%
residual activity [2]: 118%
residual activity [3]: 98%
residual activity [4]: 79%
residual activity [5]: 40%
residual activity [6]: 103%
residual activity [7]: 62%
residual activity [8]: 97%
residual activity [9]: 37%
residual activity [10]: 102%
residual activity [11]: 84%
residual activity [12]: 100%
residual activity [13]: 103%
residual activity [14]: 90%
residual activity [15]: 65%
residual activity [16]: 103%
residual activity [17]: 102%
residual activity [18]: 97%
residual activity [19]: 71%
residual activity [20]: 134%
residual activity [21]: 123%
residual activity [22]: 87%
residual activity [23]: 94%
residual activity [24]: 46%
residual activity [25]: 132%
residual activity [26]: 58%
residual activity [27]: 80%
residual activity [28]: 94%
residual activity [29]: 100%
residual activity [30]: 99%
residual activity [31]: 90%
residual activity [32]: 62%
residual activity [33]: 58%
